Reference: the supplement of paper PMC10307832

How the values were obtained:
Assay in all cases: relative viability (nuclei count vs DMSO), 5 days (fraction); higher = more cells survive
Irinotecan + Palbociclib = compound: CCc1c2c(nc3ccc(OC(=O)N4CCC(N5CCCCC5)CC4)cc13)-c1cc3c(c(=O)n1C2)COC(=O)[C@]3(O)CC [Irinotecan] + CC(=O)c1c(C)c2cnc(Nc3ccc(N4CCNCC4)cn3)nc2n(C2CCCC2)c1=O [Palbociclib] (partner 0.5 µM)
Outline: (§1)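 Cells from lung cancer lines were seeded into 1536-well plates and, one day later, dosed by pin tool. Treatments were either a single drug or a fixed dose of an anchor drug with five library-drug doses (not always all listed) in √10 steps. After 5 days, nuclei were stained in a one-step fixation (final 0.05% Triton X-100, 1% formaldehyde, 1 ug/ml Hoechst) and counted on 4× images, and relative viability is the treated-to-vehicle nuclei ratio, as the median of duplicate plates.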

Irinotecan + Linsitinib = compound: CCc1c2c(nc3ccc(OC(=O)N4CCC(N5CCCCC5)CC4)cc13)-c1cc3c(c(=O)n1C2)COC(=O)[C@]3(O)CC [Irinotecan] + C[C@]1(O)C[C@@H](c2nc(-c3ccc4ccc(-c5ccccc5)nc4c3)c3c(N)nccn32)C1 [Linsitinib] (partner 1 µM)
Outline: as §1

Irinotecan + Vorinostat = compound: CCc1c2c(nc3ccc(OC(=O)N4CCC(N5CCCCC5)CC4)cc13)-c1cc3c(c(=O)n1C2)COC(=O)[C@]3(O)CC [Irinotecan] + O=C(CCCCCCC(=O)Nc1ccccc1)NO [Vorinostat] (partner 1 µM)
Outline: as §1

MK-8033 + Linsitinib = compound: Cn1cc(-c2cnc3ccc4ccc(CS(=O)(=O)NCc5ccccn5)cc4c(=O)c3c2)cn1 [MK-8033] + C[C@]1(O)C[C@@H](c2nc(-c3ccc4ccc(-c5ccccc5)nc4c3)c3c(N)nccn32)C1 [Linsitinib] (partner 1 µM)
Outline: as §1

Cell Line	relative viability (Irinotecan + Palbociclib; first compound 0.6325 µM)	relative viability (Irinotecan + Palbociclib; first compound 2 µM)	relative viability (Irinotecan + Palbociclib; first compound 6.325 µM)	relative viability (Irinotecan + Palbociclib; first compound 20 µM)	relative viability (Irinotecan + Linsitinib; first compound 0.6325 µM)	relative viability (Irinotecan + Linsitinib; first compound 2 µM)	relative viability (Irinotecan + Linsitinib; first compound 6.325 µM)	relative viability (Irinotecan + Linsitinib; first compound 20 µM)	relative viability (Irinotecan + Vorinostat; first compound 0.6325 µM)	relative viability (Irinotecan + Vorinostat; first compound 2 µM)	relative viability (Irinotecan + Vorinostat; first compound 6.325 µM)	relative viability (Irinotecan + Vorinostat; first compound 20 µM)	relative viability (MK-8033 + Linsitinib; first compound 0.02 µM)	relative viability (MK-8033 + Linsitinib; first compound 0.06325 µM)	relative viability (MK-8033 + Linsitinib; first compound 0.2 µM)	relative viability (MK-8033 + Linsitinib; first compound 0.6325 µM)	relative viability (MK-8033 + Linsitinib; first compound 2 µM)
NCI-H460	0.0549	0.128	0.0851	0.0574	0.455	0.376	0.0862	0.0869	0.193	0.218	0.0779	0.0695	0.903	0.702	0.686	0.85	0.684
NCI-H1793	–	0.222	0.203	0.265	–	0.609	0.272	0.341	–	0.633	0.372	0.244	0.915	–	0.775	0.858	0.782
NCI-H2347	0.397	0.459	0.456	0.465	0.761	0.739	0.498	0.5	0.435	0.631	0.514	0.548	0.884	0.855	0.958	0.977	0.895
201T	0.403	0.343	0.265	0.22	–	0.85	0.445	0.397	0.325	0.81	0.426	0.28	1.13	0.916	0.979	1	1.02
NCI-H1734	–	0.256	0.193	0.373	0.797	0.355	0.155	0.195	–	0.522	0.195	0.175	0.904	0.769	0.852	0.93	0.858
SW 1573	–	0.329	0.181	0.101	0.627	0.534	0.2	0.178	–	0.605	0.209	0.0706	0.799	0.721	0.764	0.749	0.684
NCI-H1993	–	0.513	0.521	1.01	0.688	0.608	0.643	0.693	–	0.529	0.584	0.612	0.773	0.766	0.73	0.751	0.687
NCI-H1755	0.405	0.446	0.438	0.486	0.927	0.396	0.303	0.366	0.606	0.7	0.448	0.385	0.996	0.993	0.954	0.988	0.946
PC-14	0.378	0.34	0.183	0.148	0.902	0.609	0.188	0.204	0.477	0.392	0.217	0.102	0.978	0.843	0.859	0.939	0.858
NCI-H358	0.123	0.143	0.108	0.0947	0.681	0.671	0.36	0.251	0.455	0.246	0.167	0.135	0.826	0.704	0.731	0.658	0.651
LK-2	0.594	0.72	0.227	0.245	0.468	0.529	0.309	0.165	0.363	0.264	0.256	0.242	0.642	0.509	0.527	0.317	0.508
HCC-827	0.438	0.304	0.167	0.206	0.599	0.302	0.241	0.258	0.721	0.766	0.281	0.236	0.957	–	0.947	0.968	0.948
LCLC-97TM1	0.114	0.0978	0.113	0.108	0.118	0.189	0.168	0.169	0.104	0.248	0.114	0.129	0.173	0.149	0.202	0.181	0.207
EMC-BAC-2	0.387	0.346	0.337	0.248	0.56	0.267	0.2	0.242	0.224	0.297	0.283	0.225	0.774	0.771	0.744	0.893	0.791
NCI-H647	0.311	0.31	0.136	0.0705	1.03	0.329	0.178	0.15	0.679	0.398	0.139	0.0969	1.17	0.88	0.994	1.14	1.04
NCI-H1944	0.227	0.173	0.179	0.17	0.819	0.38	0.241	0.249	0.386	0.36	0.223	0.166	1.2	–	1.12	1.23	1.37
PC-3 [JPC-3]	0.566	0.557	0.529	0.338	0.842	0.413	0.377	0.412	0.625	0.914	0.411	0.419	0.947	–	0.863	0.961	0.987
SK-LU-1	0.35	0.354	0.299	0.336	0.491	0.495	0.379	0.329	0.435	0.431	0.45	0.313	1.14	1.14	0.951	1.05	0.878
NCI-H1975	0.304	0.557	0.314	0.219	1.1	0.803	0.326	0.204	0.714	0.708	0.378	0.269	0.925	0.957	0.873	0.956	0.905
HARA	0.26	0.184	0.225	0.232	0.623	0.152	0.148	0.154	–	0.146	0.122	0.135	0.779	0.78	0.893	1.03	0.897

Cell Line	relative viability (Irinotecan + Palbociclib; first compound 0.6325 µM)	relative viability (Irinotecan + Palbociclib; first compound 2 µM)	relative viability (Irinotecan + Palbociclib; first compound 6.325 µM)	relative viability (Irinotecan + Palbociclib; first compound 20 µM)	relative viability (Irinotecan + Linsitinib; first compound 0.6325 µM)	relative viability (Irinotecan + Linsitinib; first compound 2 µM)	relative viability (Irinotecan + Linsitinib; first compound 6.325 µM)	relative viability (Irinotecan + Linsitinib; first compound 20 µM)	relative viability (Irinotecan + Vorinostat; first compound 0.6325 µM)	relative viability (Irinotecan + Vorinostat; first compound 2 µM)	relative viability (Irinotecan + Vorinostat; first compound 6.325 µM)	relative viability (Irinotecan + Vorinostat; first compound 20 µM)	relative viability (MK-8033 + Linsitinib; first compound 0.02 µM)	relative viability (MK-8033 + Linsitinib; first compound 0.06325 µM)	relative viability (MK-8033 + Linsitinib; first compound 0.2 µM)	relative viability (MK-8033 + Linsitinib; first compound 0.6325 µM)	relative viability (MK-8033 + Linsitinib; first compound 2 µM)
H3255	0.304	0.301	0.292	0.336	0.803	0.439	0.26	0.298	–	0.782	0.343	0.311	1.03	0.815	0.903	0.991	0.826
NCI-H727	0.665	0.412	0.52	0.653	0.157	0.334	0.284	0.391	1.03	0.731	0.616	0.641	0.284	0.275	0.253	0.3	0.266
EKVX	–	0.311	0.265	0.227	1.1	0.906	0.377	0.238	–	0.52	0.43	0.398	1	1.01	0.856	1.05	0.994
NCI-H1666	0.59	0.559	0.577	0.438	0.71	0.414	0.403	0.384	0.849	0.706	0.788	0.631	0.872	0.754	0.83	0.66	0.81
NCI-H1915	0.224	0.182	0.137	0.121	0.374	0.238	0.187	0.171	0.307	0.329	0.168	0.147	1.12	1.07	1.09	1.08	1.15
HCC-366	0.228	0.18	0.0611	0.0667	0.443	0.152	0.0502	0.0674	0.145	0.137	0.0609	0.069	0.675	0.565	0.619	0.587	0.643
EPLC-272H	–	0.22	0.304	0.264	0.943	0.241	0.202	0.287	0.428	0.389	0.357	0.254	1.17	–	1.01	1.07	1.17
RERF-LC-KJ	1.02	0.819	0.405	0.265	0.807	0.647	0.379	0.34	0.462	0.586	0.48	0.271	0.885	0.902	0.836	0.908	0.938
NCI-H2126	0.342	0.242	0.323	0.381	–	0.414	0.355	0.335	0.4	0.616	0.335	0.292	0.727	0.659	0.673	0.686	0.715
ABC-1	–	0.628	0.506	0.358	–	0.676	0.344	0.238	–	0.566	0.405	0.348	0.744	0.791	0.676	0.829	0.657
NCI-H1355	–	0.393	0.215	0.206	0.671	0.403	0.2	0.201	–	0.578	0.36	0.26	0.735	0.7	0.762	0.795	0.828
A-427	0.499	0.487	0.292	0.132	–	0.231	0.221	0.198	0.738	0.785	0.384	0.33	1.09	1.21	1.02	1.17	1.1
NCI-H3122	0.155	0.114	0.16	0.126	0.902	0.293	0.24	0.22	0.924	0.447	0.199	0.146	1.01	1.04	0.993	1.04	1.02
NCI-H1437	0.319	0.337	0.301	0.258	0.61	0.593	0.28	0.142	0.537	0.54	0.407	0.28	0.976	1.01	0.94	1.01	0.917
COR-L23	0.155	0.218	0.184	0.105	0.392	0.284	0.203	0.123	0.169	0.184	0.199	0.0826	0.88	0.849	0.824	0.993	0.902
NCI-H1651	0.529	0.491	0.305	0.162	0.803	0.542	0.203	0.159	0.362	0.533	0.364	0.158	1.07	0.835	0.824	1.03	0.856
NCI-H2087	0.192	0.219	0.174	0.204	0.453	0.313	0.252	0.298	0.235	0.215	0.165	0.16	1.15	0.973	0.832	0.91	0.915
NCI-H661	0.397	0.435	0.457	0.142	0.583	0.476	0.334	0.256	0.688	0.49	0.344	0.252	0.55	0.5	0.53	0.59	0.507
LXF-289	0.527	0.279	0.251	0.23	0.951	0.414	0.2	0.186	0.724	0.688	0.41	0.195	0.926	0.944	1.01	0.96	0.976
